Each structure is given as a SMILES string. Like-named read-outs stand apart in the source and are kept apart here.

Experimental findings from patent publication US11780821B2, “Inhibitors of fibroblast activation protein” (Praxis Biotech LLC, priority 2017, dated 2023) are described below.

Holding throughout (type): biochemical
The target in assay [1] is T1, recombinant human DPPIV (rhDPPIV) (Homo sapiens, UniProt P27487).
T1 construct: purchased R&S system (so in the source)
The assay is described as follows: DPPIV enzymatic activity assay. The settings on record: H-Gly-Pro-pNA substrate.

Assay [2] concerns the target T2, recombinant human DPP9 (rhDPP9) (Homo sapiens, UniProt Q86TI2).
T2 construct: purchased R&S system (so in the source)
The assay is described as follows: DPP9 enzymatic activity assay. The following applies: H-Gly-Pro-AMC substrate. As to the method: (§1) 7-Amino-4-Methylcoumarin (AMC) release was detected by measuring fluorescence at Ex/Em 380/460 nm using a Multifunction Microplate Reader (Synergy 4, Biotek). All measurements were carried out in triplicate.

Assay [3] deals with T3, recombinant human PREP (rhPREP) (Homo sapiens, UniProt P48147).
T3 sequence (P48147 1-710): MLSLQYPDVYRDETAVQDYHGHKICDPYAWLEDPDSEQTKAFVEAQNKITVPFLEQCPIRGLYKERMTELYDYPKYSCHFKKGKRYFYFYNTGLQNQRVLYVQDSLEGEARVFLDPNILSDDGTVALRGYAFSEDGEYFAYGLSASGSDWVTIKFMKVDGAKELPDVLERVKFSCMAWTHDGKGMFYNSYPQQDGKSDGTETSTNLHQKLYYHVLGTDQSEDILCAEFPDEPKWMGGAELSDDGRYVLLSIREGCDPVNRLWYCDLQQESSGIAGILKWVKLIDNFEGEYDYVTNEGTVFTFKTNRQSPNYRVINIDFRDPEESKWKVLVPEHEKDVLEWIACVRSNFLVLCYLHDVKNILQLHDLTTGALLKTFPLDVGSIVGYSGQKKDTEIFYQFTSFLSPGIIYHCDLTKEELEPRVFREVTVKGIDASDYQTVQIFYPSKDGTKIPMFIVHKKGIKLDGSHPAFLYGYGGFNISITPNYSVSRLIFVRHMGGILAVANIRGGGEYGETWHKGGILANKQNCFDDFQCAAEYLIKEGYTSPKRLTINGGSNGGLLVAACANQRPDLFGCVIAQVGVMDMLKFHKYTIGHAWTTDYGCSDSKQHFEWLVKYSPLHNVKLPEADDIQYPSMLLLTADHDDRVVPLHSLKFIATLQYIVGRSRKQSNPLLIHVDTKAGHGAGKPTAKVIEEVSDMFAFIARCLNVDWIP
The assay is described as follows: PREP enzymatic activity assay. The settings on record: Z-Gly-Pro-AMC substrate. As to the method: as §1

Assay [4] has as its target T4, recombinant human FAPα (rhFAPα) (Homo sapiens, UniProt Q12884).
T4 construct: purchased R&S system (so in the source)
T4 sequence (Q12884 1-760): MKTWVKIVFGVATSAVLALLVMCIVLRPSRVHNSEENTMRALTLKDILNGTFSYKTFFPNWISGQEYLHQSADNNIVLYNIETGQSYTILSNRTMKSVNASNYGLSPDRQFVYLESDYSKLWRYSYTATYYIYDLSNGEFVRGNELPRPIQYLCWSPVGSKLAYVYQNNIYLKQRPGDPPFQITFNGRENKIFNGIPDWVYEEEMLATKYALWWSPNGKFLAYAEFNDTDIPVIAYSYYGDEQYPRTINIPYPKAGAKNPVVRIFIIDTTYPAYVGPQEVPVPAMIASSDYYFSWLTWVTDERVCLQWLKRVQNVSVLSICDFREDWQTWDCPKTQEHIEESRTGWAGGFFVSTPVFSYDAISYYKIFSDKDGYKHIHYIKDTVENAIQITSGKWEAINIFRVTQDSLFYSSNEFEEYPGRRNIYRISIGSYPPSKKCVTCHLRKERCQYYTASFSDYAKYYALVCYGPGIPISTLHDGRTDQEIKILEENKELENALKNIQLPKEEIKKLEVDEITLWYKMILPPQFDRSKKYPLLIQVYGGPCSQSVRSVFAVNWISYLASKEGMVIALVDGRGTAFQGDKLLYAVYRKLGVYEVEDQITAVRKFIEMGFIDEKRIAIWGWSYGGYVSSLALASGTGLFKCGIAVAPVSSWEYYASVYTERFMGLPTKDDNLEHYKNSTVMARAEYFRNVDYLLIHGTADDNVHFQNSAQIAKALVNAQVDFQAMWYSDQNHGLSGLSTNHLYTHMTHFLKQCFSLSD
The assay is described as follows: FAPα enzymatic exopeptidase (dipeptidase) activity assay. The settings on record: for inhibition at 1 µM: 1 μM test compound, Z-Gly-Pro-AMC substrate, read-out: rhFAPα (% exo inh @ 1 μM); for IC50: exopeptidase, read-out: rhFAPα (exo IC50).

T1 sequence (P27487 whole entry): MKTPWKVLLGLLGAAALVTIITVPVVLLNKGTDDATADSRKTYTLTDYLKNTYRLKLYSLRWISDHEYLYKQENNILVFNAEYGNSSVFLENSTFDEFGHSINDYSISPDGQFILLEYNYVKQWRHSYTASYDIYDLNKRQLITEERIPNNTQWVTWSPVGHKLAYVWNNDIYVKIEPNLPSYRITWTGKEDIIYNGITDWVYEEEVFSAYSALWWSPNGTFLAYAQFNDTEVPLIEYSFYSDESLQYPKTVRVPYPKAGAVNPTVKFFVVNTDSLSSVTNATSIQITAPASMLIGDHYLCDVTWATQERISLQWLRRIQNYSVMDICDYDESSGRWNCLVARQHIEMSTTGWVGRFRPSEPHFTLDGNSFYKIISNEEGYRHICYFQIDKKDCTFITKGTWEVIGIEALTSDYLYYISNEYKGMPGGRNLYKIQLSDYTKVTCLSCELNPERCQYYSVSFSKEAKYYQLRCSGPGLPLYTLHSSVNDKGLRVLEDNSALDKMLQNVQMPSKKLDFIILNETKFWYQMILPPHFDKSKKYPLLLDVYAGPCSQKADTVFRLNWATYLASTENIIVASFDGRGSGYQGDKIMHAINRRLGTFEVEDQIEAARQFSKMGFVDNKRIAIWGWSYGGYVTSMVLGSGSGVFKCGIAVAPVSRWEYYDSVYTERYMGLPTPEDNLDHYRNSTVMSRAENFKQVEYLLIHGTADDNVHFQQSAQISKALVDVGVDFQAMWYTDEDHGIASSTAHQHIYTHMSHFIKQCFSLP
T2 sequence (Q86TI2 whole entry): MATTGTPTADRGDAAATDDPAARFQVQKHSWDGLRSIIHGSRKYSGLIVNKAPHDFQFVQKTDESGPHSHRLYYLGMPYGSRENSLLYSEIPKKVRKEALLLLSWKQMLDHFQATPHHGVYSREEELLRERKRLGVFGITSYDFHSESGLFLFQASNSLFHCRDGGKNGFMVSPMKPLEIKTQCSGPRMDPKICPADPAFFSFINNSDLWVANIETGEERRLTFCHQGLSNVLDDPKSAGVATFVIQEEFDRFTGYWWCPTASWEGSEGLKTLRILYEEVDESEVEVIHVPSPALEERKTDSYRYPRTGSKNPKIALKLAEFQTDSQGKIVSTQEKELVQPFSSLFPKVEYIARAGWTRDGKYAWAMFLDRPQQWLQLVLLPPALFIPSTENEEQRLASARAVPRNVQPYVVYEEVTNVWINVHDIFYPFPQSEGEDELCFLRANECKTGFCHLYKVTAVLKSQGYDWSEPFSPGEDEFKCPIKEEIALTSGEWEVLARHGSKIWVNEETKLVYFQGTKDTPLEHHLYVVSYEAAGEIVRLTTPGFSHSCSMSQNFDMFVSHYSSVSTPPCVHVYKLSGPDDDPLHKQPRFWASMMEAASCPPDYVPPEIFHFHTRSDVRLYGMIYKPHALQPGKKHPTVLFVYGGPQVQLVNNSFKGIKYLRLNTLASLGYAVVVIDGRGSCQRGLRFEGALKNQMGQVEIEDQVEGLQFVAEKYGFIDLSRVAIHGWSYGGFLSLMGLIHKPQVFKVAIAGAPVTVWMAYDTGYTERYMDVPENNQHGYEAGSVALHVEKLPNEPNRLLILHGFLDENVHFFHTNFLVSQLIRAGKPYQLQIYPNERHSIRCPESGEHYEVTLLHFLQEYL

On to `N#C[C@@H]1CC(F)(F)CN1C(=O)CNC(=O)c1ccncc1C1=CCCCC1` [Compound 43, N-(2-((S)-2-cyano-4,4-difluoropyrrolidin-1-yl)-2-oxoethyl)-3-(cyclohex-1-en-1-yl)isonicotinamide], for which the IC50 was over 10 µM in assay [1]; 1 to 10 µM in assay [2]; over 10 µM in assay [3]; under 1000 nM in assay [4] (Table 2, Z-Gly-Pro-AMC); under 1000 nM in assay [4] (Table 3). The inhibition at 1 µM in assay [4] is over 50%.

For `N#C[C@@H]1CC(F)(F)CN1C(=O)CNC(=O)c1ccncc1-c1ccnc2ccccc12` [Compound 51, (S)—N-(2-(2-cyano-4,4-difluoropyrrolidin-1-yl)-2-oxoethyl)-3-(quinolin-4-yl)isonicotinamide], the IC50 in assay [1] was 1 to 10 µM; in assay [2], over 10 µM; in assay [3], over 10 µM; in assay [4] (Table 2, Z-Gly-Pro-AMC), under 1000 nM; in assay [4] (Table 3) it was under 1000 nM. The inhibition at 1 µM in assay [4] was over 50%.

For `Cc1ccccc1-c1cnccc1C(=O)NCC(=O)N1CC(F)(F)C[C@H]1C#N` [Compound 64, (S)—N-(2-(2-cyano-4,4-difluoropyrrolidin-1-yl)-2-oxoethyl)-3-(o-tolyl)isonicotinamide], the IC50 is over 10 µM in assay [1]; over 10 µM in assay [2]; over 10 µM in assay [3]; under 1000 nM in assay [4] (Table 2, Z-Gly-Pro-AMC); under 1000 nM in assay [4] (Table 3). Also, the inhibition at 1 µM in assay [4] was over 50%.

Consider `Cn1ccc2c(-c3cnccc3C(=O)NCC(=O)N3CC(F)(F)C[C@H]3C#N)cccc21` [Compound 66, (S)—N-(2-(2-cyano-4,4-difluoropyrrolidin-1-yl)-2-oxoethyl)-3-(1-methyl-1H-indol-4-yl)isonicotinamide], for which the IC50 in assay [1] was over 10 µM; in assay [2], over 10 µM; in assay [3] it was over 10 µM; in assay [4] (Table 2, Z-Gly-Pro-AMC), under 1000 nM; in assay [4] (Table 3), under 1000 nM. In addition, the inhibition at 1 µM in assay [4] was over 50%.

As to `N#C[C@@H]1CC(F)(F)CN1C(=O)CNC(=O)c1ccncc1Oc1ccccc1` [Compound 97, (S)—N-(2-(2-cyano-4,4-difluoropyrrolidin-1-yl)-2-oxoethyl)-3-phenoxyisonicotinamide], the IC50 is over 10 µM in assay [1]; over 10 µM in assay [2]; over 10 µM in assay [3]; under 1000 nM in assay [4] (Table 2, Z-Gly-Pro-AMC); under 1000 nM in assay [4] (Table 3). Also, in assay [4], the inhibition at 1 µM is over 50%.

On to `N#C[C@@H]1CC(F)(F)CN1C(=O)CNC(=O)c1ccncc1Nc1ccccc1` [Compound 102], for which the IC50 in assay [1] was over 10 µM; in assay [2], over 10 µM; in assay [3] it was over 10 µM; in assay [4] (Table 2, Z-Gly-Pro-AMC), under 1000 nM; in assay [4] (Table 3), under 1000 nM. For the same compound, in assay [4], the inhibition at 1 µM is over 50%.

With `N#C[C@@H]1CC(F)(F)CN1C(=O)CNC(=O)c1ccncc1-c1ccc2c(c1)CCN2` [Compound 104, (S)—N-(2-(2-cyano-4,4-difluoropyrrolidin-1-yl)-2-oxoethyl)-3-(indolin-5-yl)isonicotinamide], the IC50 was over 10 µM in assay [1]; over 10 µM in assay [2]; over 10 µM in assay [3]; under 1000 nM in assay [4] (Table 2, Z-Gly-Pro-AMC); under 1000 nM in assay [4] (Table 3). In assay [4], the inhibition at 1 µM was over 50%.

On to `Cc1ccc(-c2cnccc2C(=O)NCC(=O)N2CC(F)(F)C[C@H]2C#N)o1` [Compound 106, (S)—N-(2-(2-cyano-4,4-difluoropyrrolidin-1-yl)-2-oxoethyl)-3-(5-methylfuran-2-yl)isonicotinamide], for which the IC50 in assay [1] is over 10 µM; in assay [2], over 10 µM; in assay [3], over 10 µM; in assay [4] (Table 2, Z-Gly-Pro-AMC) it was under 1000 nM; in assay [4] (Table 3) it was under 1000 nM. The inhibition at 1 µM in assay [4] is over 50%.

By IC50 is commonly meant the concentration needed to halve the response being measured.
